Read-outs that look alike come from different tables or passages of the source.
Assays:
[1] = molecular target: T1, A2A-adenosine receptor human recombinant (Homo sapiens, UniProt P29274); assay: Radioligand binding assay 1, human recombinant A2A adenosine receptor
T1 construct: expressed in transfected cells
Procedure: (§1) Rat brain preparations were used for A1- and A2A adenosine receptor (AR) and human recombinant cell samples for A1-, A2A- and A3 adenosine receptor radioligand binding studies. Affinity and selectivity was tested in displacement experiments with following radioligands: [^3H]CCPA for A1-adenosine receptors, [^3H]MSX-2 for A2A-receptors and [^3H]PSB-11 for A3-receptors. Results of these experiments are depicted in table 2b (human data) and table 2a (rat data). Radioligand binding test systems are e.g. generally described by Muller et al., Curr. Pharm. Des., 1996, 2, 501 and Weyler et al., ChemMedChem 2006, 1, 891 and references cited therein) These documents are incorporated herein by reference.

[2] = molecular target: T2, A1-adenosine receptor human recombinant (Homo sapiens, UniProt P30542); assay: Radioligand binding assay 1, human recombinant A1 adenosine receptor; conditions: [3H]CCPA
T2 construct: expressed in transfected cells
T2 sequence (P30542 1-326): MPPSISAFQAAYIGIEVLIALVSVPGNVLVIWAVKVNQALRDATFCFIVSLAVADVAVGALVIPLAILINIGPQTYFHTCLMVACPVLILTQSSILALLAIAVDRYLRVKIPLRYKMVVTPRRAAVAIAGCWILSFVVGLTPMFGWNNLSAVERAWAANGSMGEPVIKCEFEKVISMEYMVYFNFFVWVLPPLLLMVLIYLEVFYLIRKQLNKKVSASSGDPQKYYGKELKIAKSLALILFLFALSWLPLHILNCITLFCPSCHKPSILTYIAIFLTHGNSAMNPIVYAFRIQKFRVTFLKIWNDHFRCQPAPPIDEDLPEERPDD
Procedure: as §1

Rat A1 AR = molecular target: T3, Rat A1 AR (Rattus norvegicus, UniProt P25099); assay: Radioligand binding assay 1, rat A1 adenosine receptor; conditions: rat cortex, [3H]CCPA
T3 construct: Rat brain preparations were used for A1- and A2A adenosine receptor (AR); from tissue; host or cells: rat cortex
T3 sequence (P25099 1-326): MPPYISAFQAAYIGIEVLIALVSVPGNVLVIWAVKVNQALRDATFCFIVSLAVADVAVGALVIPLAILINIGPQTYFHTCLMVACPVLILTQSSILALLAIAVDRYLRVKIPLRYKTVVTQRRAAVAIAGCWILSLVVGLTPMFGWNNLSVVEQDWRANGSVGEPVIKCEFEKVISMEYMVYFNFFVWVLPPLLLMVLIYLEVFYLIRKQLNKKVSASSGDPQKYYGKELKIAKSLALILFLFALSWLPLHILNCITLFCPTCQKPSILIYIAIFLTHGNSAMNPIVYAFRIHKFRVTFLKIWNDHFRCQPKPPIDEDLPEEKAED
Procedure: as §1

Rat A2A AR = molecular target: T4, Rat A2A AR (Rattus norvegicus, UniProt P30543); assay: Radioligand binding assay 1, rat A2A adenosine receptor; conditions: rat striatum, [3H]MSX-2
T4 construct: A2A adenosine receptors from rat striatum; from tissue; host or cells: rat striatum
T4 sequence (P30543 whole entry): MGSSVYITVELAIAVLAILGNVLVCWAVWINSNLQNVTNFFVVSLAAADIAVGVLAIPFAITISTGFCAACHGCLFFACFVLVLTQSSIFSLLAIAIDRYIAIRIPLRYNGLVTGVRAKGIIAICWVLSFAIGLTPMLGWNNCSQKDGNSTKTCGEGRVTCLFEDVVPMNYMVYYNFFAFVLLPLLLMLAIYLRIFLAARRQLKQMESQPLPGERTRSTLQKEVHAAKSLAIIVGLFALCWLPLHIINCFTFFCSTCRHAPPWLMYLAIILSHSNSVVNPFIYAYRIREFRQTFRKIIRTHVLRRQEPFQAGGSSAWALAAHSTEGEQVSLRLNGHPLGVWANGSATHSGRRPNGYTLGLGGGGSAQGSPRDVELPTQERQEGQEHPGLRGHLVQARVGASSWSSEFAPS
Procedure: as §1

[3] = human recombinant, [3H]MSX-2, read-out: A2A-adenosine receptor human recombinant [3H] MSX-2 Ki

T1 sequence (P29274 whole entry): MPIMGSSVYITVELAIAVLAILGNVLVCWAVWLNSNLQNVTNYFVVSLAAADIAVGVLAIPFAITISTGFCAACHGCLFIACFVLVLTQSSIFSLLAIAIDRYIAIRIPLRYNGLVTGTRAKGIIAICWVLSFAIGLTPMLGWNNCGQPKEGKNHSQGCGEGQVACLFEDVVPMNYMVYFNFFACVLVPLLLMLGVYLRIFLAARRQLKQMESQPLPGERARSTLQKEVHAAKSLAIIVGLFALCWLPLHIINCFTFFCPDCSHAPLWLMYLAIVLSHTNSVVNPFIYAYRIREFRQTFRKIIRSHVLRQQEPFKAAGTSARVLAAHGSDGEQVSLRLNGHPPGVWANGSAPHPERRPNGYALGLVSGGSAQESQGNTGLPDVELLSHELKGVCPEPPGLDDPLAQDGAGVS

SMILES	Ki [1, 3] [nM]	Ki [2] [nM]	Ki ([1]; no full inhibition curve due to limited water-solubility, read-out: A2A-adenosine receptor human recombinant [3H] MSX-2 Ki, calculated by extrapolation) [nM]	Ki (Rat A1 AR) [nM]	Ki (Rat A2A AR) [nM]
C#CCn1c(=O)c2c(nc(C#Cc3ccc4c(c3)OCO4)n2C)n(C)c1=O [drawing 561]	52.3 ± 13.4				
C#CCn1c(=O)c2c(nc(C#Cc3ccc(OC)c(OC)c3)n2C)n(CCCOP(=O)(O)O)c1=O [drawing 570]	50.7 ± 21.2				
C#CCn1c(=O)[nH]c2nc(C#Cc3ccc(OC)c(OC)c3)n(C)c2c1=O [drawing 563]	18.4 ± 3	> 1000			
C#CCn1c(=O)c2c(nc(C#Cc3ccc(OC)c(OC)c3)n2C)n(C(C)C)c1=O [drawing 586]	127 ± 19	> 1000			
C#CCn1c(=O)c2c(nc(C#Cc3cccc(OC)c3)n2C)n(CC)c1=O [drawing 565]	64.8 ± 12	> 3000			
C#CCn1c(=O)c2c(nc(C#Cc3cccc(Cl)c3)n2C)n(C)c1=O [drawing 556]	423 ± 28	> 10000			
C#CCn1c(=O)c2c(nc(C#Cc3cccc(OC)c3)n2C)n(CC=C)c1=O [drawing 571]	35.6 ± 10.9				
C#CCn1c(=O)c2c(nc(C#Cc3ccc(F)c(OC)c3)n2C)n(CC)c1=O [drawing 588]	100 ± 28	> 1000			
C#CCn1c(=O)c2c(nc(C#Cc3ccsc3)n2C)n(CC)c1=O [drawing 599]	82.5				
C#CCn1c(=O)c2c(nc(C#Cc3cccc(OCCN(C)C)c3)n2C)n(C)c1=O [drawing 560]	90.3 ± 13.7	> 1000			
C#CCn1c(=O)c2c(nc(C#Cc3cccc(OCc4ccoc4)c3)n2C)n(C)c1=O [drawing 562]	< 10	> 1000			
C#CCn1c(=O)c2c(nc(C#Cc3ccccc3)n2C)n(C)c1=O [drawing 552]			314 ± 71		
C#CCn1c(=O)c2c(nc(C#Cc3cccc(OC)c3)n2C)n(CCCO)c1=O [drawing 564]	5.5 ± 1.4	> 3000			
C#CCn1c(=O)c2c(nc(C#Cc3cncn3C)n2C)n(CC)c1=O [drawing 600]	82.1 ± 26				
C#CCn1c(=O)c2c(nc(C#Cc3cccc(OC)c3)n2C)n(CCO)c1=O [drawing 572]	165 ± 14				
C#CCn1c(=O)c2c(nc(C#Cc3ccc(C)cc3)n2C)n(C)c1=O				> 10000	151 ± 8.4
C#CCn1c(=O)c2c(nc(C#Cc3cccc(C)c3)n2C)n(C)c1=O [drawing 460]				> 10000	43.4 ± 11.6
C#CCn1c(=O)c2c(nc(C#Cc3ccccc3)n2C)n(C)c1=O [drawing 452]				> 1000	186 ± 60
C#CCn1c(=O)c2c(nc(C#Cc3cccc(OCCN(C)C)c3)n2C)n(C)c1=O [drawing 473]				194 ± 33	49 ± 5
C#CCn1c(=O)c2c(nc(C#Cc3cccc(OCCOC)c3)n2C)n(C)c1=O [drawing 471]				≥ 10000	219 ± 52

SMILES	Ki [1, 3] [nM]	Ki [2] [nM]	Ki ([1]; no full inhibition curve due to limited water-solubility, read-out: A2A-adenosine receptor human recombinant [3H] MSX-2 Ki, calculated by extrapolation) [nM]	Ki (Rat A1 AR) [nM]	Ki (Rat A2A AR) [nM]
C#CCn1c(=O)c2c(nc(C#Cc3cc(OC)cc(OC)c3)n2C)n(C)c1=O				> 10000	190 ± 50
CCn1c(=O)n(Cc2ccoc2)c(=O)c2c1nc(C#Cc1ccc(OC)c(OC)c1)n2C				1250 ± 106	90.7 ± 11.2
C#CCn1c(=O)c2c(nc(C#Cc3ccc(OC)cc3)n2C)n(C)c1=O				> 10000	123 ± 38
C#CCn1c(=O)c2c(nc(C#Cc3cccc(OC)c3)n2C)n(CC)c1=O [drawing 485]				> 10000	49.9 ± 9.7
C#CCn1c(=O)c2c(nc(C#Cc3cncn3C)n2C)n(CC)c1=O [drawing 511]				460 ± 61	119 ± 26
C#CCn1c(=O)c2c(nc(C#Cc3ccc(OC)c(OC)c3)n2C)n(CC(=O)OCC)c1=O				≥ 1000	167 ± 82
C#CCn1c(=O)c2c(nc(C#Cc3cccc(OCCCO)c3)n2C)n(C)c1=O [drawing 596]	299 ± 72				
C#CCn1c(=O)c2c(nc(C#Cc3ccoc3)n2C)n(CC)c1=O				> 1000	220 ± 21
C#CCn1c(=O)c2c(nc(C#Cc3ccc4c(c3)OCO4)n2C)n(C)c1=O [drawing 476]				> 10000	166 ± 34
C#CCn1c(=O)c2c(nc(C#Cc3cccc(OC(C)=O)c3)n2C)n(C)c1=O [drawing 472]				1170 ± 731	140 ± 12
C#CCn1c(=O)c2c(nc(C#Cc3ccc4c(c3)OCO4)n2C)n(CC)c1=O				> 1000	29.6 ± 6.1
C#CCn1c(=O)c2c(nc(C#Cc3ccc(OC)c(OC)c3)n2C)n(C(C)C(C)=O)c1=O (stereo not shown) [drawing 591]	54				
C#CCn1c(=O)c2c(nc(C#Cc3cccc(OC)c3)n2C)n(CCN(C)C)c1=O [drawing 594]	569 ± 10.7				
C#CCn1c(=O)c2c(nc(C#Cc3ccc(OC)cc3)n2C)n(CC)c1=O				> 1000	28.6 ± 13.3
C#CCn1c(=O)c2c(nc(C#Cc3cccc(Cl)c3)n2C)n(CC)c1=O				488 ± 253	141 ± 28
C#CCn1c(=O)[nH]c2nc(C#Cc3cccc(OC)c3)n(C)c2c1=O				> 1000	135 ± 28
C#CCn1c(=O)c2c(nc(C#Cc3cccc(OCC)c3)n2C)n(C)c1=O				~10000	174 ± 42
C#CCn1c(=O)c2c(nc(C#Cc3cccc(OCCCN(C)C)c3)n2C)n(C)c1=O [drawing 470]				186 ± 3	40 ± 1
C#CCn1c(=O)c2c(nc(C#Cc3ccccc3OC)n2C)n(C)c1=O				> 10000	> 10000
C#CCn1c(=O)c2c(nc(C#Cc3ccc(F)c(OC)c3)n2C)n(CC)c1=O [drawing 519]				> 1000	43.1 ± 13.2

Further lines, results first:

Ki [1, 3] [nM]	Ki [2] [nM]	Ki ([1]; no full inhibition curve due to limited water-solubility, read-out: A2A-adenosine receptor human recombinant [3H] MSX-2 Ki, calculated by extrapolation) [nM]	Ki (Rat A1 AR) [nM]	Ki (Rat A2A AR) [nM]	SMILES
103	> 1000				C#CCn1c(=O)c2c(nc(C#Cc3ccc(OC)c(OC)c3)n2C)n(Cc2cnc[nH]2)c1=O [drawing 593]
56.3 ± 26.4	> 1000				C#CCn1c(=O)c2c(nc(C#Cc3ccc(OC)c(OC)c3)n2C)n(CC2CC2)c1=O [drawing 590]
273					C#CCn1c(=O)c2c(nc(C#Cc3ccc(OC)c(OC)c3)n2C)n(CC(C)=O)c1=O [drawing 592]
416 ± 44	> 1000				C#CCn1c(=O)c2c(nc(C#Cc3ccc(OC)c(OC)c3)n2C)n(Cc2cccs2)c1=O [drawing 589]
13.9 ± 0.8	> 1000				C#CCn1c(=O)c2c(nc(C#Cc3ccc(OC)c(OC)c3)n2C)n(Cc2ccco2)c1=O [drawing 579]
36.6 ± 8.7	> 1000				C#CCn1c(=O)c2c(nc(C#Cc3ccc(OC)c(OC)c3)n2C)n(CCC)c1=O [drawing 584]
84.3 ± 31	> 1000				C#CCn1c(=O)c2c(nc(C#Cc3ccc(OC)c(OC)c3)n2C)n(CCC#N)c1=O [drawing 577]
96.3 ± 3.1					C#CCn1c(=O)c2c(nc(C#Cc3ccc(OC)c(OC)c3)n2C)n(CCC2CO2)c1=O (stereo not shown) [drawing 580]
			337 ± 67	30.1 ± 5.4	C#CCn1c(=O)c2c(nc(C#Cc3ccc(OC)c(OC)c3)n2C)n(CCCO)c1=O [drawing 533]
			> 10000	32.7 ± 6.1	C#CCn1c(=O)c2c(nc(C#Cc3ccc(OC)c(OC)c3)n2C)n(C)c1=O [drawing 458]
			176 ± 59	34.9 ± 6.9	C#CCn1c(=O)c2c(nc(C#Cc3ccc(OC)c(OC)c3)n2C)n(CCC=C)c1=O
			64 ± 5.4	19.2 ± 1.4	C#CCn1c(=O)c2c(nc(C#Cc3ccc(OC)c(OC)c3)n2C)n(CCC2CO2)c1=O (stereo not shown) [drawing 505]
			111 ± 26	103 ± 15	C#CCn1c(=O)c2c(nc(C#Cc3ccc(OC)c(OC)c3)n2C)n(CCC(=O)CC)c1=O
			≥ 1000	134 ± 16	C#CCn1c(=O)c2c(nc(C#Cc3ccc(OC)c(OC)c3)n2C)n(CCNC)c1=O
			> 1000	10.2 ± 4.2	C#CCn1c(=O)c2c(nc(C#Cc3ccc(OC)c(OC)c3)n2C)n(CC2CC2)c1=O [drawing 521]
			> 1000	91.7 ± 38.3	C#CCn1c(=O)c2c(nc(C#Cc3ccc(OC)c(OC)c3)n2C)n(CC(=O)CC)c1=O
89.7 ± 16.1					C#CCn1c(=O)c2c(nc(C#Cc3ccc(OC)c(OC)c3)n2C)n(C)c1=O [drawing 601]
			≥ 1000	16.3 ± 2.8	C#CCn1c(=O)c2c(nc(C#Cc3ccc(OC)c(OC)c3)n2C)n(CCCF)c1=O
			189 ± 33	13.3 ± 1.4	C#CCn1c(=O)c2c(nc(C#Cc3ccc(OC)c(OC)c3)n2C)n(CC(C)O)c1=O (stereo not shown) [drawing 502]
			209 ± 42	11.7 ± 1.7	C#CCn1c(=O)c2c(nc(C#Cc3ccc(OC)c(OC)c3)n2C)n(CCCCF)c1=O
			146 ± 46	1.83 ± 0.38	C#CCn1c(=O)c2c(nc(C#Cc3ccc(OC)c(OC)c3)n2C)n(C[C@H](C)CO)c1=O
